The target of assay [1] is T1, S1P1 receptor (S1P1 expressing RH7777 membranes) (Homo sapiens, UniProt P21453).
T1 construct: expressed in transfected cells; host or cells: RH7777 cells (membranes)
The assay is described as follows: S1P1 GTPγS assay. In kind it is biochemical. The settings on record: tested in one of the above S1P1 assays (two GTPγS formats). The gist of the method:
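Membranes from RH7777 cells expressing human S1P1 (1.5 μg/well) precoupled 30 min on ice to WGA SPA beads in 20 mM HEPES pH 7.4, 10 mM MgCl2, 100 mM NaCl, with 10 μM GDP and 90 μg/ml saponin. [35S]-GTPγS 0.5 nM final added with compound; SPA signal read immediately.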

Assay [2] has as its target T2, S1P1 (PathHunter CHO-K1 EDG1 β-Arrestin cell line) (Homo sapiens, UniProt P21453).
T2 construct: host or cells: PathHunter CHO-K1 EDG1 β-Arrestin cell line
The assay is described as follows: S1P-1 β-Arrestin recruitment assay. The settings on record: CHO-K1 EDG1 β-Arrestin cells, chemi-luminescence. In kind it is cell-based. An outline of the steps: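 CHO-K1 cells expressing S1P1 and β-arrestin 2 fused to complementing β-galactosidase fragments, at 1×10^4 cells/well in pH 7.4 buffer with 0.1% BSA. Compound exposure 90 min at 37 °C then 15 min room temperature; chemiluminescent substrate added for 60 min before luminescence read.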
A general note: Recruitment of arrestin is a read-out of receptor activation apart from second messengers.

Structures are written as SMILES. Counter-ions that a name gives are not always drawn.

T2 sequence (P21453 whole entry): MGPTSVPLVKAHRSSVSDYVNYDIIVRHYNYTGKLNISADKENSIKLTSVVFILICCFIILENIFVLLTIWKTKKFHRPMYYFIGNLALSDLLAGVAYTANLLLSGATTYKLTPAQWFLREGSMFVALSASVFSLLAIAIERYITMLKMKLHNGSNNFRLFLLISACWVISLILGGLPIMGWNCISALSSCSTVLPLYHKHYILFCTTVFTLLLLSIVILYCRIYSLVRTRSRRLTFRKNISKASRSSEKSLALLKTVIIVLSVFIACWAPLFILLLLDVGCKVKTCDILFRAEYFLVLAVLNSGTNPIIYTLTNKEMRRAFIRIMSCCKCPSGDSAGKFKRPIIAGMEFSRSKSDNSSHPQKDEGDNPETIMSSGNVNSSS
T2 sequence (P32121 whole entry partner): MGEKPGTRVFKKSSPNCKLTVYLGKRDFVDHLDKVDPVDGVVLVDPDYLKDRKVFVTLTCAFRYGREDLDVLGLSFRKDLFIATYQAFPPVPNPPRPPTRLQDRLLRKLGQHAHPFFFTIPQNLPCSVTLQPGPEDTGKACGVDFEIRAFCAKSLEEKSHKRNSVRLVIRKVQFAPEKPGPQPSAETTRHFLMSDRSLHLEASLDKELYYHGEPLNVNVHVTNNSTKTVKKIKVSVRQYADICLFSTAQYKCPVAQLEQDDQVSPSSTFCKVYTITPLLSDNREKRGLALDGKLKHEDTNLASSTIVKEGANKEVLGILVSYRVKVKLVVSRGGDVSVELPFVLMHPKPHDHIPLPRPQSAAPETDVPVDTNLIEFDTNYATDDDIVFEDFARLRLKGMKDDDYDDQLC
T1 sequence (P21453 whole entry): as the sequence (P21453 whole entry) above

`CC(C)Oc1ncc(-c2nc(-c3ccc4c(c3)CCN(C(=O)[C@@H](N)[C@@H](C)O)CC4)no2)cc1C#N` [Example 77, 2-[(1-methylethyl)oxy]-5-[3-(3-L-threonyl-2,3,4,5-tetrahydro-1H-3-benzazepin-7-yl)-1,2,4-oxadiazol-5-yl]-3-pyridinecarbonitrile hydrochloride]: the EC50 in assay [1] is no more than 1000 nM; in assay [2] it was no more than 100 nM.

Take `CC(C)Oc1ccc(-c2nc(-c3ccc4c(c3)CCN(C[C@H](O)CO)CC4)no2)cc1C#N` [Example 72, 5-(3-{3-[(2S)-2,3-dihydroxypropyl]-2,3,4,5-tetrahydro-1H-3-benzazepin-7-yl}-1,2,4-oxadiazol-5-yl)-2-[(1-methylethyl)oxy]benzonitrile]: the EC50 in assay [1] was no more than 100 nM; in assay [2] it was no more than 10 nM.

With `Cc1c(-c2noc(-c3cnc(OC(C)C)c(C#N)c3)n2)ccc2c1CCN(C(=O)[C@@H](N)[C@@H](C)O)C2` [Example 79, 2-[(1-methylethyl)oxy]-5-[3-(5-methyl-2-L-threonyl-1,2,3,4-tetrahydro-6-isoquinolinyl)-1,2,4-oxadiazol-5-yl]-3-pyridinecarbonitrile hydrochloride], the EC50 in assay [1] is no more than 100 nM; in assay [2] it was no more than 10 nM.

`Cc1c(-c2noc(-c3ccc(OC(C)C)c(C#N)c3)n2)ccc2c1CCN(CCC(N)=O)C2` [Example 1, 3-[6-(5-{3-Cyano-4-[(1-methylethyl)oxy]phenyl}-1,2,4-oxadiazol-3-yl)-5-methyl-3,4-dihydro-2(1H)-isoquinolinyl]propanamide]: the results for the EC50 in assay [1] and in assay [2] were no more than 100 nM and no more than 10 nM, respectively.

On to `Cc1c(-c2noc(-c3ccc(OC(C)C)c(C#N)c3)n2)ccc2c1CCN(CCCO)C2` [Example 8, 5-{3-[2-(3-Hydroxypropyl)-5-methyl-1,2,3,4-tetrahydro-6-isoquinolinyl]-1,2,4-oxadiazol-5-yl}-2-[(1-methylethyl)oxy]benzonitrile], for which the EC50 in assay [1] was no more than 100 nM; in assay [2] it was no more than 10 nM.

Consider `Cc1c(-c2noc(-c3ccc(OC(C)C)c(C#N)c3)n2)ccc2c1CCN(C(CO)CO)C2` [Example 64, 5-(3-{2-[2-hydroxy-1-(hydroxymethyl)ethyl]-5-methyl-1,2,3,4-tetrahydro-6-isoquinolinyl}-1,2,4-oxadiazol-5-yl)-2-[(1-methylethyl)oxy]benzonitrile], for which the EC50 was no more than 1000 nM in assay [1] and no more than 10 nM in assay [2].

As for `CC(C)Oc1ccc(-c2nc(-c3ccc4c(c3)CCN(CCCC(N)=O)CC4)no2)cc1C#N` [Example 25, 4-[7-(5-{3-Cyano-4-[(1-methylethyl)oxy]phenyl}-1,2,4-oxadiazol-3-yl)-1,2,4,5-tetrahydro-3H-3-benzazepin-3-yl]butanamide], the half-maximal effective concentration (EC50) is no more than 100 nM in assay [1] and no more than 10 nM in assay [2].

For `CC(C)Oc1ccc(-c2nc(-c3ccc4c(c3)CCN(CCCC(=O)N(C)C)CC4)no2)cc1C#N` [Example 26, 4-[7-(5-{3-Cyano-4-[(1-methylethyl)oxy]phenyl}-1,2,4-oxadiazol-3-yl)-1,2,4,5-tetrahydro-3H-3-benzazepin-3-yl]-N,N-dimethylbutanamide], the EC50 in assay [1] was no more than 100 nM; in assay [2], no more than 10 nM.

Turning to `Cc1c(-c2noc(-c3ccc(OC(C)C)c(C#N)c3)n2)ccc2c1CCN(C(=O)CNCCO)CC2` [Example 155, 5-(3-{3-[N-(2-hydroxyethyl)glycyl]-6-methyl-2,3,4,5-tetrahydro-1H-3-benzazepin-7-yl}-1,2,4-oxadiazol-5-yl)-2-[(1-methylethyl)oxy]benzonitrile], the figures for the EC50 in assay [1] and in assay [2] were 1 nM and no more than 10 nM, respectively.

For `CC(C)Oc1ccc(-c2nc(-c3ccc4c(c3)CCN(C(=O)[C@@](C)(N)CO)CC4)no2)cc1C#N` [Example 81, 2-[(1-methylethyl)oxy]-5-{3-[3-(2-methyl-L-seryl)-2,3,4,5-tetrahydro-1H-3-benzazepin-7-yl]-1,2,4-oxadiazol-5-yl}benzonitrile], the EC50 in assay [1] and in assay [2] was no more than 100 nM throughout.

With `CC(C)Oc1ccc(-c2nc(-c3ccc4c(c3)CCN(CC(=O)N3CCOCC3)CC4)no2)cc1C#N` [Example 92, 2-[(1-methylethyl)oxy]-5-(3-{3-[2-(4-morpholinyl)-2-oxoethyl]-2,3,4,5-tetrahydro-1H-3-benzazepin-7-yl}-1,2,4-oxadiazol-5-yl)benzonitrile hydrochloride], the EC50 in assay [1] is no more than 10 nM; in assay [2], no more than 100 nM.

Turning to `Cc1c(-c2noc(-c3ccc(OC(C)C)c(C#N)c3)n2)ccc2c1CCN(CCO)C2` [Example 7, 5-{3-[2-(2-Hydroxyethyl)-5-methyl-1,2,3,4-tetrahydro-6-isoquinolinyl]-1,2,4-oxadiazol-5-yl}-2-[(1-methylethyl)oxy]benzonitrile], the EC50 in assay [1] is no more than 100 nM; in assay [2], no more than 10 nM.

Turning to `Cc1c(-c2noc(-c3ccc(OC(C)C)c(C#N)c3)n2)ccc2c1CCN(C(=O)CNCC(O)CO)CC2` (stereo not drawn) [Example 187, 5-(3-{3-[N-(2,3-dihydroxypropyl)glycyl]-6-methyl-2,3,4,5-tetrahydro-1H-3-benzazepin-7-yl}-1,2,4-oxadiazol-5-yl)-2-[(1-methylethyl)oxy]benzonitrile], the EC50 was no more than 100 nM in assay [1] and no more than 10 nM in assay [2].

With `CC(C)Oc1ccc(-c2nc(-c3ccc4c(c3)CCN(CC(=O)NC[C@H](O)CO)CC4)no2)cc1C#N` [Example 194, 2-[7-(5-{3-cyano-4-[(1-methylethyl)oxy]phenyl}-1,2,4-oxadiazol-3-yl)-1,2,4,5-tetrahydro-3H-3-benzazepin-3-yl]-N-[(2S)-2,3-dihydroxypropyl]acetamide hydrochloride], the EC50 in assay [1] was no more than 100 nM; in assay [2] it was no more than 10 nM.

On to `COC(=O)NCCN1CCc2ccc(-c3noc(-c4ccc(OC(C)C)c(C#N)c4)n3)cc2CC1` [Example 100, methyl {2-[7-(5-{3-cyano-4-[(1-methylethyl)oxy]phenyl}-1,2,4-oxadiazol-3-yl)-1,2,4,5-tetrahydro-3H-3-benzazepin-3-yl]ethyl}carbamate], for which the EC50 in assay [1] and in assay [2] was no more than 10 nM throughout.

Turning to `Cc1c(-c2noc(-c3ccc(OC(C)C)c(C#N)c3)n2)ccc2c1CCN(CC(N)=O)C2` [Example 3, 2-[6-(5-{3-Cyano-4-[(1-methylethyl)oxy]phenyl}-1,2,4-oxadiazol-3-yl)-5-methyl-3,4-dihydro-2(1H)-isoquinolinyl]acetamide], the figures for the concentration giving a half-maximal response (EC50) in assay [1] and in assay [2] were no more than 100 nM and no more than 10 nM, respectively.

For the compound `CNCCC(=O)N1CCc2ccc(-c3noc(-c4ccc(OC(C)C)c(C#N)c4)n3)cc2CC1` [Example 67, 5-{3-[3-(N-methyl-b-alanyl)-2,3,4,5-tetrahydro-1H-3-benzazepin-7-yl]-1,2,4-oxadiazol-5-yl}-2-[(1-methylethyl)oxy]benzonitrile], the EC50 in assay [1] and in assay [2] was no more than 100 nM in each case.

As to `CC(C)Nc1ncc(-c2nc(-c3ccc4c(c3)CCN(C(=O)CN)CC4)no2)cc1C#N` [Example 112, 5-[3-(3-glycyl-2,3,4,5-tetrahydro-1H-3-benzazepin-7-yl)-1,2,4-oxadiazol-5-yl]-2-[(1-methylethyl)amino]-3-pyridinecarbonitrile], the EC50 in assay [1] is no more than 1000 nM; in assay [2], no more than 100 nM.

A word on the EC50: it is the concentration at which the effect is half-maximal. A low value points to a more potent agent.

(Values after patent US20120101083A1, “S1P1 AGONISTS COMPRISING A BICYCLIC N-CONTAINING RING” (GLAXO GROUP LIMITED, priority 2009, published 2012).)
